# Where “and” joins values, the source holds several entries; their conditions need not be identical. Equal entries are not always repeated. Inconclusive results and toxic doses are left out.
# Tested on: CD2F1 mice, L1210 leukemia ip, survival T/C
# Test: NCI In Vivo Anticancer Drug Screen. Data for tumor model L1210 Leukemia (intraperitoneal) in CD2F1 (CDF1) mice
# Settings: endpoint: mean survival time, higher = longer survival
# Outline: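 Vehicle-treated tumor-bearing mice served as controls (C) for compound-treated mice (T). Reported figure is T divided by C.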
smiles,measurement,setting,value
Nc1nc(=S)c2ncn(C3CC(O)C(CO)O3)c2[nH]1 (stereo unspecified),T/C,"dose: 1.25 mg/kg/injection, schedule: Q01DX005 (ip), vehicle: saline",150 % of control
same,T/C,"dose: 2.5 mg/kg/injection, schedule: Q01DX001 (ip), vehicle: steriod suspending solution",123 % of control
same,T/C,"dose: 4.0 mg/kg/injection, schedule: Q01DX009 (sc), vehicle: saline",108 % of control
same,T/C,"dose: 5.0 mg/kg/injection, schedule: Q01DX005 (ip), vehicle: saline with Tween-80",154 % of control
same,T/C,"dose: 5.0 mg/kg/injection, schedule: Q01DX005 (oral), vehicle: saline",160 % of control
same,T/C,"dose: 5.0 mg/kg/injection, schedule: Q04DX003 (ip), vehicle: water",153 % of control
same,T/C,"dose: 8.0 mg/kg/injection, schedule: Q01DX009 (ip), vehicle: saline",151 % of control
same,T/C,"dose: 8.0 mg/kg/injection, schedule: Q01DX009 (sc), vehicle: saline",106 % of control
same,T/C,"dose: 10.0 mg/kg/injection, schedule: Q01DX005 (ip), vehicle: saline with Tween-80",120 % of control
same,T/C,"dose: 10.0 mg/kg/injection, schedule: Q01DX005 (ip), vehicle: saline",151 % of control
same,T/C,"dose: 10.0 mg/kg/injection, schedule: Q01DX005 (oral), vehicle: saline",156 % of control
same,T/C,"dose: 10.0 mg/kg/injection, schedule: Q04DX003 (ip), vehicle: suspension in saline",154 % of control
same,T/C,"dose: 10.0 mg/kg/injection, schedule: Q04DX003 (iv), vehicle: suspension in saline",177 % of control
same,T/C,"dose: 16.0 mg/kg/injection, schedule: Q01DX005 (ip), vehicle: saline",161 % of control
same,T/C,"dose: 16.0 mg/kg/injection, schedule: Q01DX009 (ip), vehicle: saline",170 % of control
same,T/C,"dose: 16.0 mg/kg/injection, schedule: Q01DX009 (ip), vehicle: water",108 % of control
same,T/C,"dose: 16.0 mg/kg/injection, schedule: Q01DX009 (sc), vehicle: saline",151 % of control
same,T/C,"dose: 20.0 mg/kg/injection, schedule: Q01DX001 (sc), vehicle: saline",121 % of control
same,T/C,"dose: 20.0 mg/kg/injection, schedule: Q01DX005 (oral), vehicle: saline",151 % of control
same,T/C,"dose: 20.0 mg/kg/injection, schedule: Q03HX008 (ip), vehicle: saline",152 % of control
same,T/C,"dose: 20.0 mg/kg/injection, schedule: Q03HX024 (ip), vehicle: saline",150 % of control
same,T/C,"dose: 20.0 mg/kg/injection, schedule: Q04DX003 (ip), vehicle: saline",157 % of control
same,T/C,"dose: 20.0 mg/kg/injection, schedule: Q04DX003 (ip), vehicle: suspension in saline",159 % of control
same,T/C,"dose: 20.0 mg/kg/injection, schedule: Q04DX003 (iv), vehicle: suspension in saline",159 % of control
same,T/C,"dose: 24.0 mg/kg/injection, schedule: Q01DX009 (ip), vehicle: water",116 % of control and 103 % of control
same,T/C,"dose: 24.0 mg/kg/injection, schedule: Q04DX003 (ip), vehicle: water",118 % of control
same,T/C,"dose: 32.0 mg/kg/injection, schedule: Q01DX005 (ip), vehicle: saline",152 % of control
same,T/C,"dose: 32.0 mg/kg/injection, schedule: Q01DX009 (ip), vehicle: saline",157 % of control
same,T/C,"dose: 32.0 mg/kg/injection, schedule: Q01DX009 (sc), vehicle: saline",150 % of control
same,T/C,"dose: 36.0 mg/kg/injection, schedule: Q01DX009 (ip), vehicle: water",103 % of control
same,T/C,"dose: 36.0 mg/kg/injection, schedule: Q04DX003 (ip), vehicle: water",111 % of control
same,T/C,"dose: 37.5 mg/kg/injection, schedule: Q04DX003 (ip), vehicle: clinical formulation",102 % of control
same,T/C,"dose: 37.5 mg/kg/injection, schedule: Q04DX003 (ip), vehicle: saline",163 % of control
same,T/C,"dose: 40.0 mg/kg/injection, schedule: Q03HX008 (ip), vehicle: saline",157 % of control
same,T/C,"dose: 40.0 mg/kg/injection, schedule: Q03HX016 (ip), vehicle: saline",156 % of control
same,T/C,"dose: 40.0 mg/kg/injection, schedule: Q03HX024 (ip), vehicle: saline",159 % of control
same,T/C,"dose: 40.0 mg/kg/injection, schedule: Q04DX003 (ip), vehicle: saline",178 % of control
same,T/C,"dose: 40.0 mg/kg/injection, schedule: Q04DX003 (ip), vehicle: suspension in saline",151 % of control
same,T/C,"dose: 40.0 mg/kg/injection, schedule: Q04DX003 (iv), vehicle: suspension in saline",189 % of control
same,T/C,"dose: 40.0 mg/kg/injection, schedule: Q08DX002 (ip), vehicle: saline",152 % of control
same,T/C,"dose: 50.0 mg/kg/injection, schedule: Q01DX009 (ip), vehicle: water",107 % of control
same,T/C,"dose: 50.0 mg/kg/injection, schedule: Q04DX003 (ip), vehicle: water",120 % of control and 103 % of control
same,T/C,"dose: 64.0 mg/kg/injection, schedule: Q01DX009 (ip), vehicle: saline",123 % of control
same,T/C,"dose: 75.0 mg/kg/injection, schedule: Q04DX003 (ip), vehicle: clinical formulation",111 % of control
same,T/C,"dose: 75.0 mg/kg/injection, schedule: Q04DX003 (ip), vehicle: saline",154 % of control
same,T/C,"dose: 76.0 mg/kg/injection, schedule: Q01DX009 (ip), vehicle: water",115 % of control
same,T/C,"dose: 76.0 mg/kg/injection, schedule: Q04DX003 (ip), vehicle: water",122 % of control and 103 % of control
same,T/C,"dose: 80.0 mg/kg/injection, schedule: Q01DX001 (ip), vehicle: saline",154 % of control
same,T/C,"dose: 80.0 mg/kg/injection, schedule: Q03HX008 (ip), vehicle: saline",161 % of control
same,T/C,"dose: 80.0 mg/kg/injection, schedule: Q03HX016 (ip), vehicle: saline",168 % of control
same,T/C,"dose: 80.0 mg/kg/injection, schedule: Q03HX024 (ip), vehicle: saline",161 % of control
same,T/C,"dose: 80.0 mg/kg/injection, schedule: Q04DX003 (ip), vehicle: saline",174 % of control
same,T/C,"dose: 80.0 mg/kg/injection, schedule: Q04DX003 (ip), vehicle: suspension in saline",154 % of control
same,T/C,"dose: 80.0 mg/kg/injection, schedule: Q04DX003 (iv), vehicle: suspension in saline",162 % of control
same,T/C,"dose: 80.0 mg/kg/injection, schedule: Q08DX002 (ip), vehicle: saline",154 % of control
same,T/C,"dose: 96.0 mg/kg/injection, schedule: Q01DX009 (oral), vehicle: saline",115 % of control
same,T/C,"dose: 116.0 mg/kg/injection, schedule: Q01DX005 (ip), vehicle: water",117 % of control
same,T/C,"dose: 116.0 mg/kg/injection, schedule: Q01DX009 (ip), vehicle: water",150 % of control
same,T/C,"dose: 116.0 mg/kg/injection, schedule: Q04DX003 (ip), vehicle: water",106 % of control
same,T/C,"dose: 150.0 mg/kg/injection, schedule: Q04DX003 (ip), vehicle: saline",152 % of control
same,T/C,"dose: 160.0 mg/kg/injection, schedule: Q03HX008 (ip), vehicle: saline",160 % of control
same,T/C,"dose: 160.0 mg/kg/injection, schedule: Q03HX016 (ip), vehicle: saline",174 % of control
same,T/C,"dose: 160.0 mg/kg/injection, schedule: Q03HX024 (ip), vehicle: saline",155 % of control
same,T/C,"dose: 160.0 mg/kg/injection, schedule: Q04DX003 (ip), vehicle: saline",162 % of control
same,T/C,"dose: 160.0 mg/kg/injection, schedule: Q08DX002 (ip), vehicle: saline",158 % of control and 152 % of control
same,T/C,"dose: 176.0 mg/kg/injection, schedule: Q01DX005 (ip), vehicle: water",105 % of control
same,T/C,"dose: 176.0 mg/kg/injection, schedule: Q04DX003 (ip), vehicle: water",121 % of control
same,T/C,"dose: 192.0 mg/kg/injection, schedule: Q01DX009 (oral), vehicle: saline",106 % of control
same,T/C,"dose: 240.0 mg/kg/injection, schedule: Q01DX001 (oral), vehicle: saline",152 % of control
same,T/C,"dose: 266.0 mg/kg/injection, schedule: Q01DX005 (ip), vehicle: water",88 % of control
same,T/C,"dose: 266.0 mg/kg/injection, schedule: Q04DX003 (ip), vehicle: water",115 % of control
same,T/C,"dose: 300.0 mg/kg/injection, schedule: Q04DX003 (ip), vehicle: saline",101 % of control
same,T/C,"dose: 320.0 mg/kg/injection, schedule: Q01DX001 (oral), vehicle: saline",152 % of control
same,T/C,"dose: 320.0 mg/kg/injection, schedule: Q03HX008 (ip), vehicle: saline",162 % of control
same,T/C,"dose: 320.0 mg/kg/injection, schedule: Q03HX016 (ip), vehicle: saline",158 % of control
same,T/C,"dose: 320.0 mg/kg/injection, schedule: Q04DX003 (ip), vehicle: suspension in saline",108 % of control

# From PubChem BioAssay AID256 (DTP/NCI, 2004)
